We go through nine compounds from PMC9267128, “New 2-[(4-Amino-6-N-substituted-1,3,5-triazin-2-yl)methylthio]-N-(imidazolidin-2-ylidene)-4-chloro-5-methylbenzenesulfonamide Derivatives, Design, Synthesis and Anticancer Evaluation” (International Journal of Molecular Sciences, 2022).

The structures appear in SMILES notation. “Also recorded” adds a separate entry of the source.

One data set relates to HeLa (cervical cancer). As to the kind of experiment: MTT cell viability assay, HeLa. The class given is cell-based, human. Particulars: for IC50: Homo sapiens, HeLa, MTT assay, 72 h of incubation; for Selectivity Index (SI) HeLa: IC50 value toward HaCaT cells/IC50 value toward HeLa. Summed up: (§1)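 HCT-116 and HeLa cells in DMEM/10% FBS exposed 72 h to compounds over 1–100 µM. Viability by MTT (0.5 mg/mL, 2 h, 37 °C), formazan dissolved in DMSO and read at 550 nm; mean ± SD of at least three independent experiments.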
(In general: Tetrazolium assays rely on reduction of a dye to a coloured formazan, in cell work by metabolically active cells.)

The next data set concerns HCT-116, MCF-7 and HeLa. The experiment in a line: MTT cytotoxicity, summary statements on all tested tumor cell lines together. The note with it: MTT 72 h. The data set is classed as cell-based, human. As to the method: Compounds 20–162 were evaluated in vitro for their effects on the viability of three cancer cell lines: HCT-116 (colon cancer), MCF-7 (breast cancer) and HeLa (cervical cancer), as well as the non-cancerous keratinocyte cell line (HaCaT). […] Analysis was performed using an MTT assay after 72 h of incubation.
(§2) Cell viability was examined using the MTT [3-(4,5-dimethylthiazol-2-yl)-2,5-diphenyltetrazolium bromide] assay. Cells were seeded in 96-well plates at a density of 3 × 10^3 cells/well and treated for 72 h with the tested compounds in the concentration range of 1–100 µM. Then, MTT (0.5 mg/mL) was added to the medium and cells were further incubated for 2 h at 37 °C. In the next stage, cells were lysed with DMSO and the absorbance of the formazan solution was measured at 550 nm with a plate reader (1420 multilabel counter, Victor, Jügesheim, Germany). The experiment was performed in triplicate. Values are expressed as the mean ± SD of at least three independent experiments. Cisplatin was used as a positive control.

The test system of the next data set is HCT-116 (colon cancer). As to the kind of experiment: MTT cell viability assay, HCT-116. The data set is classed as cell-based, human. The note with it: for IC50: Homo sapiens, HCT-116, 72 h, MTT assay, 72 h of incubation; for Selectivity Index (SI) HCT-116: IC50 value toward HaCaT cells/IC50 value toward HCT-116. Summed up:
as §1

Another data set has as its system MCF-7 (breast cancer). As to the kind of experiment: MTT cell viability assay, MCF-7. The data set is classed as cell-based, human. The note with it: for IC50: MTT assay, 72 h of incubation; for Selectivity Index (SI) MCF-7: IC50 value toward HaCaT cells/IC50 value toward MCF-7. An outline of the steps: (§3)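 Cells in DMEM with 10% FBS, 3 × 10^3 per well, exposed to compounds at 1–100 µM for 72 h at 37 °C. MTT at 0.5 mg/mL for 2 h, formazan dissolved in DMSO and read at 550 nm. Mean ± SD of at least three independent experiments, each in triplicate.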

The subject of data set [1] is MCF7 (breast cancer cell line, ATCC, HTB-22). As to the kind of experiment: MTT assay, wild-type p53 breast cancer cells MCF-7 (Table 11). The note with it: 72 h of incubation, wild-type p53, second determination. The data set is classed as cell-based, human. As to the method:
(§4) Thus, the ability of the selected compounds to exert cytotoxic activity toward cell lines harboring mutant p53 was examined. Compounds displaying a high selectivity index (Table 6) were selected for the analysis of their activity toward ovarian and breast cancer cells with wild-type p53 (A2780, MCF-7) and mutant p53 (SKOV-3, T47D).
as §2
(§5) Compounds 48, 62, 134, 138 and 140 were further examined toward MCF7 (breast cancer cell line, ATCC, HTB-22), T47D (breast cancer cell line, DSMZ ACC 739), A2780 (ovarian carcinoma cell line, ECACC, 93112519), and SKOV3 (ovarian carcinoma cell line, ATCC, HTB-77) cells. Cells were grown in Dulbecco’s Modified Eagle Medium (DMEM) supplemented with 10% fetal bovine serum (Thermo Fisher Scientific).

Data set [2] deals with SKOV3 (ovarian carcinoma cell line). As to the kind of experiment: MTT assay, mutant p53 ovarian cancer cells SKOV-3. The data set is classed as cell-based. As to the method: as §4, §2, §5
For the next data set, the system named is MDM2-p53 interactions. The experiment in a line: Western blot of MDM2 and p53 protein levels in MCF-7 cells. The data set is classed as cell-based, human. Particulars: 4 µM and 10 µM, 24-h incubation. Here is the method: Thus, the effects of the examined compounds on the inhibition of MDM2-p53 interactions were examined. MDM2 and p53 protein levels were determined with Western blot analysis after the treatment of MCF-7 cells with compounds selected for their high selectivity index (48, 62, 134, 138, and 140). Compounds were examined at different concentrations (4 µM and 10 µM) following a 24-h incubation (Figure 7).
Proteins were transferred to an Immobilon-P PVDF membrane (Merck Millipore, Burlington, MA, USA). The membranes were incubated for 1 h using 5% low-fat milk solution in 1× TBS (50 mM Tris-Cl, pH 7.5, 150 mM NaCl) as a blocking buffer and then overnight at 4 °C in the same blocking solution containing one of the following antibodies: anti-MDM2 (rabbit, Sigma-Aldrich AB-166, Burlington, MA, USA), anti-p53 (rabbit, Sigma-Aldrich S15) or α-tubulin (rabbit, 11H10, Cell Signaling, Danvers, MA, USA). After washing (3 × 10 min in TBS), membranes were incubated for 2 h in room temperature with the adequate HRP-conjugated secondary antibody: goat anti-rabbit IgG (1:5000, Abcam, Cambridge, UK; cat. 97051). Membranes were developed using an HRP detection kit WesternBright Quantum (Advansta, San Jose, CA, USA; cat. K-12042).
A general note: Immunoblotting shows a protein as a band on a membrane.

In data set [3] the test system is HaCaT (human keratinocyte cell line). As to the kind of experiment: MTT cell viability assay, non-cancerous HaCaT. The data set is classed as cell-based. Particulars: 72 h of incubation, non-cancerous keratinocytes. Summed up:
as §3

Data set [4] deals with T47D (breast cancer cell line). The experiment in a line: MTT assay, mutant p53 breast cancer cells T47D. The class given is cell-based. The note with it: 72 h of incubation. As to the method:
as §4, §2, §5

Data set [5] concerns A2780 (ovarian carcinoma cell line). The experiment in a line: MTT assay, wild-type p53 ovarian cancer cells A2780. The data set is classed as cell-based. Here is the method: as §4, §2, §5
The mark [6] stands for this setting: Homo sapiens, SK-OV-3, 72 h of incubation.
Where [7] appears, read: Homo sapiens, A2780, 72 h of incubation.

The term IC50 denotes the concentration at which inhibition is half-maximal. Regarding `Cc1cc(S(=O)(=O)N=C2NCCN2)c(SCc2nc(N)nc(N3CCN(C)CC3)n2)cc1Cl` [Compound 30], the IC50 was found to be 153 ± 5 µM in the data set with HeLa (cervical cancer); 170 ± 3 µM in the data set on HCT-116 (colon cancer); 145 ± 7 µM with MCF-7 (breast cancer) (Homo sapiens, MCF7, 72 h). Further, in the data set on HCT-116, MCF-7 and HeLa, the “cytotoxic activity for all tested cell lines (in words)” value (shortened to “cytotoxic activity”) is “inactive”.
As for `Cc1cc(S(=O)(=O)N=C2NCCN2Cc2ccccc2)c(SCc2nc(N)nc(N3CCN(c4ccc(Cl)cc4)CC3)n2)cc1Cl` [Compound 62], the IC50 in [1] (Homo sapiens, MCF7) amounted to 10.4 ± 0.1 µM; in data set [2] (setting [6]), 10.1 ± 0.1 µM; in the data set with HeLa (cervical cancer) it was 107 ± 1 µM; in data set [3] (Homo sapiens, HaCaT, 72 h) it was 32 ± 1 µM; in the data set on HCT-116 (colon cancer), 6 ± 0.1 µM; in data set [4] (Homo sapiens, T47D), 4.9 ± 0.1 µM. Moreover, the IC50 in the data set on MCF-7 (breast cancer) (Homo sapiens, MCF7, 72 h) came out at 7 ± 0.1 µM; in [5] (setting [7]), 3.9 ± 0.1 µM. In the data set with HeLa (cervical cancer), the “Selectivity Index (SI) HeLa” value is on record as 0.3. The “MDM2 and p53 protein levels” value in the data set on MDM2-p53 interactions is reported as “no changes”. Further, the “Selectivity Index (SI) HCT-116” value in the data set on HCT-116 (colon cancer) was determined as 5.3. Moreover, the “Selectivity Index (SI) MCF-7” value in the data set with MCF-7 (breast cancer) worked out at 4.5.
For `Cc1cc(S(=O)(=O)N=C2NCCN2Cc2ccccc2)c(SCc2nc(N)nc(N3CCN(c4ccc([N+](=O)[O-])cc4)CC3)n2)cc1Cl` [Compound 67], the IC50 in the data set with HeLa (cervical cancer) came to 140 ± 7 µM; in the data set with HCT-116 (colon cancer), 168 ± 8 µM; in the data set with MCF-7 (breast cancer) (Homo sapiens, MCF7, 72 h) it was 153 ± 5 µM. In addition, in the data set with HCT-116, MCF-7 and HeLa, the “cytotoxic activity” value is “inactive; also recorded: loss of activity”.
On the same counts, the results for `Cc1cc(S(=O)(=O)N=C2NCCN2Cc2ccccc2)c(SCc2nc(N)nc(N3CCN(S(=O)(=O)c4ccccc4)CC3)n2)cc1Cl` [Compound 70] are 550 ± 21 µM, 300 ± 18 µM, 490 ± 10 µM and “loss of activity”.
Regarding `Cc1ccc(S(=O)(=O)N2CCN(c3nc(N)nc(CSc4cc(Cl)c(C)cc4S(=O)(=O)N=C4NCCN4Cc4ccccc4)n3)CC2)cc1` [Compound 71], the IC50 was 265 ± 8 µM in the data set with HeLa (cervical cancer); 27 ± 1 µM in data set [3] (Homo sapiens, HaCaT, 72 h); 155 ± 6 µM with HCT-116 (colon cancer); 205 ± 4 µM in the data set with MCF-7 (breast cancer) (Homo sapiens, MCF7, 72 h). For the same compound, the “cytotoxic activity” value with HCT-116, MCF-7 and HeLa is on record as “loss of activity”.
On the same counts, the results for `Cc1cc(S(=O)(=O)N=C2NCCN2Cc2ccc(C(F)(F)F)cc2)c(SCc2nc(N)nc(N(C)C)n2)cc1Cl` [Compound 118] are 115 ± 2 µM, > 500 µM, 105 ± 4 µM, 10 ± 0.5 µM and “inactive”.
With `Cc1cc(S(=O)(=O)N=C2NCCN2Cc2ccc(C(F)(F)F)cc2)c(SCc2nc(N)nc(N3CCN(c4ccc(C(F)(F)F)cc4)CC3)n2)cc1Cl` [Compound 134], the IC50 in [1] (Homo sapiens, MCF7) was 7.8 ± 0.1 µM; in data set [2] (setting [6]), 5.7 ± 0.1 µM; in the data set with HeLa (cervical cancer), 10 ± 0.6 µM; in data set [3] (Homo sapiens, HaCaT, 72 h), 22 ± 1 µM; in the data set with HCT-116 (colon cancer) it was 5 ± 0.2 µM; in [4] (Homo sapiens, T47D) it was 3.2 ± 0.1 µM. Also, the concentration for half-maximal inhibition (IC50) in the data set with MCF-7 (breast cancer) (Homo sapiens, MCF7, 72 h) is 11 ± 0.1 µM; in data set [5] (setting [7]), 3.9 ± 0.1 µM. Moreover, the “Selectivity Index (SI) HeLa” value in the data set with HeLa (cervical cancer) was determined as 2.2. Also, the “MDM2 and p53 protein levels” value in the data set on MDM2-p53 interactions is listed as “no changes”. Further, the “Selectivity Index (SI) HCT-116” value with HCT-116 (colon cancer) was 4.4. Further, the “Selectivity Index (SI) MCF-7” value in the data set on MCF-7 (breast cancer) came out at 2.0.
In the case of `Cc1cc(S(=O)(=O)N=C2NCCN2Cc2ccc(C(F)(F)F)cc2)c(SCc2nc(N)nc(N3CCN(c4ccc(Cl)c(Cl)c4)CC3)n2)cc1Cl` [Compound 138], the IC50 in data set [1] (Homo sapiens, MCF7) is 8.2 ± 0.1 µM; in data set [2] (setting [6]), 5.8 ± 0.1 µM; in the data set with HeLa (cervical cancer), 9 ± 0.6 µM; in data set [3] (Homo sapiens, HaCaT, 72 h), 22 ± 1 µM; in the data set on HCT-116 (colon cancer) it was 6 ± 0.2 µM; in [4] (Homo sapiens, T47D), 4.4 ± 0.1 µM. Besides, the IC50 in the data set with MCF-7 (breast cancer) (Homo sapiens, MCF7, 72 h) turned out to be 9 ± 0.5 µM; in data set [5] (setting [7]), 2.2 ± 0.1 µM. Further, the “MDM2 and p53 protein levels” value with MDM2-p53 interactions is reported as “no changes”.
`N.N.[Cl][Pt][Cl]` [cisplatin, reference compound]: the IC50 came out at 3 ± 0.1 µM in data set [1]; 71 ± 0.1 µM in data set [2] (72 h of incubation); 7.7 ± 0.2 µM in data set [3]; 3.1 ± 0.1 µM in data set [4]; 3 ± 0.1 µM with MCF-7 (breast cancer); 1.4 ± 0.1 µM in data set [5] (72 h of incubation).
